Results from patent US8349553B2, “Jasmonate based assays for identifying compounds that selectively inhibit mitochondrial bound hexokinases” (Ramot at Tel Aviv University Ltd., priority 2007, dated 2013).

Columns and labels:
Molt-4 cells = test: Trypan blue exclusion test, Molt-4; format: cell-based, human; settings: 3 mM, 1 hour
Description: (§1) Cell death was determined by trypan blue exclusion. […] Alternatively, cytotoxicity was determined using hemacolor staining. […] In order to test the correlation between cellular ATP levels and the release of hexokinase from mitochondrial fraction different cancer cells, namely Molt-4 cells, BCL-1 leukemic cells and B16 melanoma tumors were exposed to various methyl jasmonate concentrations. […] CT26 and Molt-4 cells were then seeded in 24 well plates. CT26 cells were allowed to adhere over night. Cells were exposed to methyl jasmonate (MJ; 3 mM) for 1 hour. Trypan blue exclusion test was performed and cells were counted.

CT26 cells [1] = test: Cellular ATP levels (CellTiter-Glo), CT26; format: cell-based, murine; settings: 60 minutes of exposure, indicated concentrations (FIG. 4A)
Description: (§2) The CellTiter-Glo™ Luminescent Cell Viability Assay (Promega, Madison, Wis., U.S.A.) was employed (Fingrut, 2005). Upon completion of a given experiment, plates were equilibrated to room temperature. CellTiter-Glo™ reagent containing luciferin and luciferase was added to each well and the plates were mixed on an orbital shaker for 2 minutes to induce cell lysis. In the presence of ATP, Mg^2+ and molecular oxygen, mono-oxidation of luciferin is catalyzed by luciferase, generating a luminescence signal. Cells were then incubated for 10 minutes at room temperature to stabilize the luminescence signal. Luminescence was recorded using Kodak digital science—Image station 440 CD. Luminescence is directly proportional to ATP concentration. ATP depletion (% of control) was calculated in the following way: {(luminescence of control cells−luminescence of drug-treated cells)/luminescence of control cells}×100. In order to test the correlation between cellular ATP levels and the release of hexokinase from mitochondrial fraction different cancer cells, namely Molt-4 cells, BCL-1 leukemic cells and B16 melanoma tumors were exposed to various methyl jasmonate concentrations. […] CT26 and Molt-4 cells were then seeded in 24 well plates. CT26 cells were allowed to adhere over night. Cells were exposed to methyl jasmonate (MJ; 3 mM) for 1 hour. Trypan blue exclusion test was performed and cells were counted.

B16 melanoma = test: Cellular ATP levels (CellTiter-Glo), B16; format: cell-based, murine; settings: 60 minutes of exposure, various concentrations
Description: as §2

[2] = test system: CT26 cells transfected with pcDNA3-HKII or pcDNA3; test: ATP depletion in CT26 cells over-expressing hexokinase II; format: cell-based, murine; settings: 60 minutes exposure
Description: The CellTiter-Glo™ Luminescent Cell Viability Assay (Promega, Madison, Wis., U.S.A.) was employed (Fingrut, 2005). Upon completion of a given experiment, plates were equilibrated to room temperature. CellTiter-Glo™ reagent containing luciferin and luciferase was added to each well and the plates were mixed on an orbital shaker for 2 minutes to induce cell lysis. In the presence of ATP, Mg^2+ and molecular oxygen, mono-oxidation of luciferin is catalyzed by luciferase, generating a luminescence signal. Cells were then incubated for 10 minutes at room temperature to stabilize the luminescence signal. Luminescence was recorded using Kodak digital science—Image station 440 CD. Luminescence is directly proportional to ATP concentration. ATP depletion (% of control) was calculated in the following way: {(luminescence of control cells−luminescence of drug-treated cells)/luminescence of control cells}×100.

[3] = test system: HKI and HKII (mitochondrial fraction of BCL-1); test: Western blot of supernatants with anti-HKI and anti-HKII, BCL-1 mitochondrial fraction; format: biochemical, murine; settings: BCL-1 mitochondrial fraction supernatant
Description: For analysis of hexokinase levels, the experiments were performed similarly to hexokinase detachment assay described above, and unbound hexokinase in the supernatant fraction was extracted as described in Fingrut (2005). Samples were separated by sodium dodecylsulfate-polyacrylamide gel (7%) electrophoresis followed by immunoblotting. The blots were probed with specific anti-HKI or anti-HKII antibodies (1:300, Santa-Cruz Biotechnology, CA, USA). Hexokinase-antibody complexes were stained with HRP-conjugated antibody (1:10,000, Santa-Cruz Biotechnology, CA, USA). Enhanced chemiluminescence (ECL) reagent (Biological Industries, Beit Haemek, Israel) was added, and the blots were exposed to ECL film (Eastman Kodak, Rochester, N.Y., USA). Hexokinase detachment from mitochondrial fraction is not limited to CT-26 colon carcinoma. Mitochondrial fractions isolated from different cancer cells, namely Molt-4 cells, BCL-1 leukemic cells and B16 melanoma tumors were incubated for 30 minutes at 37° C., and the activity of unbound hexokinase was measured and compared to the activity of spontaneously (control) detached hexokinase. […] The supernatant of the experiments were separated on SDS-PAGE and probed with anti-HKI and anti-HKII antibodies.

CT26 cells [4] = test: Trypan blue exclusion test, CT26; format: cell-based, murine; settings: 3 mM, 1 hour
Description: as §1

[5] = test system: HKI and HKII (mitochondrial fraction of CT-26 tumor); test: Western blot of supernatants with anti-HKI and anti-HKII, CT-26 tumor mitochondrial fraction; format: biochemical, murine
Description: For analysis of hexokinase levels, the experiments were performed similarly to hexokinase detachment assay described above, and unbound hexokinase in the supernatant fraction was extracted as described in Fingrut (2005). Samples were separated by sodium dodecylsulfate-polyacrylamide gel (7%) electrophoresis followed by immunoblotting. The blots were probed with specific anti-HKI or anti-HKII antibodies (1:300, Santa-Cruz Biotechnology, CA, USA). Hexokinase-antibody complexes were stained with HRP-conjugated antibody (1:10,000, Santa-Cruz Biotechnology, CA, USA). Enhanced chemiluminescence (ECL) reagent (Biological Industries, Beit Haemek, Israel) was added, and the blots were exposed to ECL film (Eastman Kodak, Rochester, N.Y., USA). In order to verify physical detachment of mitochondrial hexokinase, similar preparations were separated on SDS-PAGE, electroblotted to nitrocellulose membrane and probed with anti-HKI and anti-HKII antibodies.

BCL-1 leukemic cells = test: Cellular ATP levels (CellTiter-Glo), BCL-1; format: cell-based, murine; settings: 60 minutes of exposure, various concentrations
Description: as §2

Q: What does the source list for `CC/C=C\CC1C(=O)CCC1CC(=O)OC` (stereo not drawn) [methyl jasmonate]?
A: sensitivity of Molt-4 relative to CT26 cells (Molt-4 cells): showed increased sensitivity with respect to CT26 tumor cells; live/dead cells by Trypan blue exclusion (Molt-4 cells; Molt-4): still alive after 60 minutes; cellular ATP level (CT26 cells [1]): depletes cellular ATP; cellular ATP level (B16 melanoma): significant and dose-dependent decrease of cellular ATP; depletion of cellular ATP levels, hexokinase II over-expressing vs. control cells [2]: decreased in cells with higher expression of hexokinase II; detachment of hexokinase confirmed by immunoblot (anti-HKI, anti-HKII) [3]: detachment of hexokinase from mitochondrial fraction of the various cancer cells was further confirmed; live/dead cells by Trypan blue exclusion (CT26 cells [4]): still alive after 60 minutes; physical release of HKI and HKII into supernatant (immunoblot) [5]: release of both HKI and HKII were demonstrated; cellular ATP level (BCL-1 leukemic cells): significant and dose-dependent decrease of cellular ATP
